Structures can show the parent of a compound that is named as a salt. A value given as a limit tells only on which side of the number the result lay.

Experimental findings from patent US20120101083A1, “S1P1 AGONISTS COMPRISING A BICYCLIC N-CONTAINING RING” (GLAXO GROUP LIMITED, priority 2009, published 2012) are described below.

Assay [1] deals with T1, S1P1 receptor (S1P1 expressing RH7777 membranes) (Homo sapiens, UniProt P21453).
T1 construct: expressed in transfected cells; host or cells: RH7777 cells (membranes)
Description: S1P1 GTPγS assay. Format: biochemical. The conditions noted are these: tested in one of the above S1P1 assays (two GTPγS formats). The procedure, abridged:
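Membranes from RH7777 cells expressing human S1P1 (1.5 μg/well) precoupled 30 min on ice to WGA SPA beads in 20 mM HEPES pH 7.4, 10 mM MgCl2, 100 mM NaCl, with 10 μM GDP and 90 μg/ml saponin. [35S]-GTPγS 0.5 nM final added with compound; SPA signal read immediately.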

In assay [2] the target is T2, S1P1 (PathHunter CHO-K1 EDG1 β-Arrestin cell line) (Homo sapiens, UniProt P21453).
T2 construct: host or cells: PathHunter CHO-K1 EDG1 β-Arrestin cell line
Description: S1P-1 β-Arrestin recruitment assay. Type of assay: cell-based. Conditions: CHO-K1 EDG1 β-Arrestin cells, chemi-luminescence. As to the method:
S1P-1 β-Arrestin Recruitment Assay
β-Arrestin recruitment assays were carried out using the PathHunter CHO-K1 EDG1
β-Arrestin cell line (DiscoveRx Corporation) in a chemi-luminescence detection assay. This cell line stably expresses β-Arrestin 2 and S1P1 fused to complementing portions of β-galactosidase (‘EA’ and ‘pro-link’, respectively) which associate upon Arrestin recruitment to form functional β-galactosidase enzyme.
Cells were grown to 80% confluency in Growth Medium (F12 nutrient HAMS supplemented with 10% heat-inactivated USA FBS, 1% L-glutamax, 800 μg/ml Geneticin and 300 μg/ml Hygromycin). Cells were harvested from the flask using Enzyme Free Cell Dissociation Buffer (Gibco) and washed from flasks with Optimem solution (Gibco). Cells were then centrifuged at 1000 rpm for 2-3 min and resuspended in Assay Buffer (Prepared from Sigma kit H1387 supplemented with 20 ml/L HEPES, 4.7 ml/L NaHCO3, 0.1% pluronic acid F-68 solution, 0.1% BSA and adjusted to pH 7.4 using sodium hydroxide at 1×10^6 cells/ml. Cells were dispensed into assay plates containing compounds (100n1/well of a solution of test compound in 100% DMSO) at 1×10^4 cells/well and incubated at 37° C./5% CO2 for 90 min followed by 15 min at room temperature. 5 μl detection mix (1 part Galacton Star, 5 parts Emerald II, 19 parts Assay Buffer; DiscoveRx) were added per well and the plates incubated at room temperature for 60 min. Luminescence was quantified using a Viewlux plate reader.

T1 sequence (P21453 whole entry): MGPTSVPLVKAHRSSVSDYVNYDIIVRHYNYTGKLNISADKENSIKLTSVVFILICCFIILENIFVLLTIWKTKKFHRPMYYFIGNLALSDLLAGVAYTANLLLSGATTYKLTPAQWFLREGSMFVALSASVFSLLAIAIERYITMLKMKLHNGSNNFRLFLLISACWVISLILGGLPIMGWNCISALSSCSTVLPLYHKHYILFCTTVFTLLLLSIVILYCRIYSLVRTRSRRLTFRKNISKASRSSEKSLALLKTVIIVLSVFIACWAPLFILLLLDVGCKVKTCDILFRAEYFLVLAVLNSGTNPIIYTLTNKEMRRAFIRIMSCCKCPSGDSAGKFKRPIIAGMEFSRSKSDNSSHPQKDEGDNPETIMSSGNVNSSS
T2 sequence (P21453 whole entry): as above
T2 sequence (P32121 whole entry partner): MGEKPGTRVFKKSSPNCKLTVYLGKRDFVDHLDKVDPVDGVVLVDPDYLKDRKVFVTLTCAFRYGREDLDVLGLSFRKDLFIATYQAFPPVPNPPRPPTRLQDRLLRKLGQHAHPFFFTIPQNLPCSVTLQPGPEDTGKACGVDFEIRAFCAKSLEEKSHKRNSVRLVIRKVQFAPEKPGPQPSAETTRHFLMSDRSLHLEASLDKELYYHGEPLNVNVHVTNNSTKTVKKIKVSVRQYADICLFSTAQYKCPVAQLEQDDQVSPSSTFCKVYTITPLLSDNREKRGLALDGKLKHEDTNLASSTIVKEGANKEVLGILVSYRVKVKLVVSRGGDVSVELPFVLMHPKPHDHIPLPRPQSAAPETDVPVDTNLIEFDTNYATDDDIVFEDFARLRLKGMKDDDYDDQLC

`Cc1c(-c2noc(-c3ccc(OC(C)C)c(C#N)c3)n2)ccc2c1CCN(CC(=O)NC[C@H](O)CO)C2` [Example 124, 2-[6-(5-{3-cyano-4-[(1-methylethyl)oxy]phenyl}-1,2,4-oxadiazol-3-yl)-5-methyl-3,4-dihydro-2(1H)-isoquinolinyl]-N-[(2S)-2,3-dihydroxypropyl]acetamide hydrochloride]: the EC50 in assay [1] was ≤ 100 nM; in assay [2], ≤ 10 nM.
As for `Cc1c(-c2noc(-c3ccc(OC(C)C)c(C#N)c3)n2)ccc2c1CCN(CC(=O)N[C@H](C)CO)C2` [Example 118, 2-[6-(5-{3-cyano-4-[(1-methylethyl)oxy]phenyl}-1,2,4-oxadiazol-3-yl)-5-methyl-3,4-dihydro-2(1H)-isoquinolinyl]-N-(1R)-2-hydroxy-1-methylethyl]acetamide hydrochloride], the EC50 is ≤ 100 nM in assay [1] and ≤ 10 nM in assay [2].
Take `CC(C)Oc1ccc(-c2nc(-c3ccc4c(c3)CCN(CCC(N)=O)CC4)no2)cc1C#N` [Example 22, 3-[7-(5-{3-Cyano-4-[(1-methylethyl)oxy]phenyl}-1,2,4-oxadiazol-3-yl)-1,2,4,5-tetrahydro-3H-3-benzazepin-3-yl]propanamide]: the EC50 in assay [1] is ≤ 100 nM; in assay [2], ≤ 10 nM.
With `Cc1c(-c2noc(-c3ccc(OC(C)C)c(C#N)c3)n2)ccc2c1CCN(CC(=O)NC(CO)CO)C2` [Example 125, 2-[6-(5-{3-cyano-4-[(1-methylethyl)oxy]phenyl}-1,2,4-oxadiazol-3-yl)-5-methyl-3,4-dihydro-2(1H)-isoquinolinyl]-N-[2-hydroxy-1-(hydroxymethyl)ethyl]acetamide hydrochloride], the EC50 was ≤ 100 nM in assay [1] and ≤ 10 nM in assay [2].
Take `Cc1c(-c2noc(-c3ccc(OC(C)C)c(C#N)c3)n2)ccc2c1CCN(CC(O)CO)C2` (centres unmarked) [Example 6, 5-{3-[2-(2,3-Dihydroxypropyl)-5-methyl-1,2,3,4-tetrahydro-6-isoquinolinyl]-1,2,4-oxadiazol-5-yl}-2-[(1-methylethyl)oxy]benzonitrile]: the 50% effective concentration (EC50) was ≤ 100 nM in assay [1] and ≤ 10 nM in assay [2].
As for `Cc1c(-c2noc(-c3cnc(OC(C)C)c(C#N)c3)n2)ccc2c1CCN(C[C@H](O)CO)C2` [Example 132, 5-(3-{2-[(2S)-2,3-dihydroxypropyl]-5-methyl-1,2,3,4-tetrahydro-6-isoquinolinyl}-1,2,4-oxadiazol-5-yl)-2-[(1-methylethyl)oxy]-3-pyridinecarbonitrile], the EC50 in assay [1] is ≤ 1000 nM; in assay [2] it was ≤ 100 nM.
For `CNCCC(=O)N1CCc2c(ccc(-c3noc(-c4ccc(OC(C)C)c(C#N)c4)n3)c2C)C1` [Example 40, 2-[(1-methylethyl)oxy]-5-{3-[5-methyl-2-(N-methyl-b-alanyl)-1,2,3,4-tetrahydro-6-isoquinolinyl]-1,2,4-oxadiazol-5-yl}benzonitrile hydrochloride], the figures for the EC50 in assay [1] and in assay [2] were ≤ 100 nM and ≤ 10 nM, respectively.
As to `CC(C)Oc1ccc(-c2nc(-c3ccc4c(c3)CCN(C(=O)CNC[C@H](O)CO)CC4)no2)cc1C#N` [Example 196, 5-[3-(3-{N-[(2S)-2,3-dihydroxypropyl]glycyl}-2,3,4,5-tetrahydro-1H-3-benzazepin-7-yl)-1,2,4-oxadiazol-5-yl]-2-[(1-methylethyl)oxy]benzonitrile hydrochloride], the EC50 in assay [1] was ≤ 1000 nM; in assay [2] it was ≤ 100 nM.
Regarding `CC(C)Oc1ccc(-c2nc(-c3cccc4c3CCN(CC(O)CO)C4)no2)cc1C#N` (centres unmarked) [Example 76, 5-{3-[2-(2,3-dihydroxypropyl)-1,2,3,4-tetrahydro-5-isoquinolinyl]-1,2,4-oxadiazol-5-yl}-2-[(1-methylethyl)oxy]benzonitrile], the EC50 in assay [1] and in assay [2] was ≤ 10 nM each time.
As for `Cc1c(-c2noc(-c3ccc(OC(C)C)c(C#N)c3)n2)ccc2c1CCN(CC(=O)N[C@H](C)CO)CC2` [Example 159], the EC50 is ≤ 100 nM in assay [1] and ≤ 10 nM in assay [2].
Take `CCOc1ncc(-c2nc(-c3ccc4c(c3)CCN(C[C@H](O)CO)CC4)no2)cc1C#N` [Example 116, 5-(3-{34[(2S)-2,3-dihydroxypropyl]-2,3,4,5-tetrahydro-1H-3-benzazepin-7-yl}-1,2,4-oxadiazol-5-yl)-2-(ethyloxy)-3-pyridinecarbonitrile]: the figures for the EC50 in assay [1] and in assay [2] were ≤ 1000 nM and ≤ 100 nM, respectively.
As to `CC(C)Nc1ncc(-c2nc(-c3ccc4c(c3)CCN(C[C@H](O)CO)CC4)no2)cc1C#N` [Example 114, 5-(3-{3-[(2S)-2,3-dihydroxypropyl]-2,3,4,5-tetrahydro-1H-3-benzazepin-7-yl}-1,2,4-oxadiazol-5-yl)-2-[(1-methylethyl)amino]-3-pyridinecarbonitrile], the EC50 in assay [1] was ≤ 1000 nM; in assay [2], ≤ 100 nM.
The like results for `CC(C)Oc1ccc(-c2nnc(-c3ccc4c(c3)CCN(CCC(N)=O)C4)s2)cc1C#N` [Example 47, 3-[6-(5-{3-cyano-4-[(1-methylethyl)oxy]phenyl}-1,3,4-thiadiazol-2-yl)-3,4-dihydro-2(1H)-isoquinolinyl]propanamide] were, in that order, ≤ 1000 nM and ≤ 100 nM.
With `Cc1c(-c2noc(-c3ccc(OC(C)C)c(C#N)c3)n2)ccc2c1CCN(CC(=O)NCCO)CC2` [Example 146, 2-[7-(5-{3-cyano-4-[(1-methylethyl)oxy]phenyl}-1,2,4-oxadiazol-3-yl)-6-methyl-1,2,4,5-tetrahydro-3H-3-benzazepin-3-yl]-N-(2-hydroxyethyl)acetamide], the EC50 was ≤ 100 nM in assay [1] and ≤ 10 nM in assay [2].
As to `Cc1c(-c2noc(-c3ccc(OC(C)C)c(C#N)c3)n2)ccc2c1CCN(C(=O)CN)C2` [Example 42, 5-[3-(2-Glycyl-5-methyl-1,2,3,4-tetrahydro-6-isoquinolinyl)-1,2,4-oxadiazol-5-yl]-2-[(1-methylethyl)oxy]benzonitrile hydrochloride], the EC50 was ≤ 100 nM in assay [1] and ≤ 10 nM in assay [2].
For `Cc1c(-c2noc(-c3ccc(OC(C)C)c(C#N)c3)n2)ccc2c1CCN(C(CO)CO)CC2` [Example 156, 5-(3-{3-[2-hydroxy-1-(hydroxymethyl)ethyl]-6-methyl-2,3,4,5-tetrahydro-1H-3-benzazepin-7-yl}-1,2,4-oxadiazol-5-yl)-2-[(1-methylethyl)oxy]benzonitrile hydrochloride], the values for the EC50 in assay [1] and in assay [2] were ≤ 100 nM and ≤ 10 nM, respectively.
Consider `Cc1c(-c2noc(-c3ccc(OC(C)C)c(C#N)c3)n2)ccc2c1CCN(CC(=O)N[C@@H](C)CO)C2` [Example 119, 2-[6-(5-{3-cyano-4-[(1-methylethyl)oxy]phenyl}-1,2,4-oxadiazol-3-yl)-5-methyl-3,4-dihydro-2(1H)-isoquinolinyl]-N-[(1S)-2-hydroxy-1-methylethyl]acetamide hydrochloride], for which the EC50 in assay [1] and in assay [2] was ≤ 10 nM throughout.
With `CC(C)Oc1ccc(-c2nc(-c3ccc4c(c3)CCN(C(CO)CO)CC4)no2)cc1C#N` [Example 68, 5-(3-{3-[2-hydroxy-1-(hydroxymethyl)ethyl]-2,3,4,5-tetrahydro-1H-3-benzazepin-7-yl}-1,2,4-oxadiazol-5-yl)-2-[(1-methylethyl)oxy]benzonitrile], the EC50 in assay [1] and in assay [2] was ≤ 100 nM in each case.
Consider `CC(C)Oc1ccc(-c2nc(-c3cccc4c3CCN(C(=O)[C@H](N)CO)C4)no2)cc1C#N` [Example 90, 2-[(1-methylethyl)oxy]-5-[3-(2-D-seryl-1,2,3,4-tetrahydro-5-isoquinolinyl)-1,2,4-oxadiazol-5-yl]benzonitrile hydrochloride], for which the figures for the EC50 in assay [1] and in assay [2] were ≤ 10 nM and ≤ 100 nM, respectively.
With `CNC(=O)CCCN1CCc2ccc(-c3noc(-c4ccc(OC(C)C)c(C#N)c4)n3)cc2CC1` [Example 24, 4-[7-(5-{3-Cyano-4-[(1-methylethyl)oxy]phenyl}-1,2,4-oxadiazol-3-yl)-1,2,4,5-tetrahydro-3H-3-benzazepin-3-yl]-N-methylbutanamide], the EC50 in assay [1] was ≤ 100 nM; in assay [2] it was ≤ 10 nM.
Turning to `Cc1c(-c2noc(-c3ccc(OC(C)C)c(C#N)c3)n2)ccc2c1CCN(C(=O)[C@H](N)[C@@H](C)O)C2` [Example 56, 5-[3-(2-D-allothreonyl-5-methyl-1,2,3,4-tetrahydro-6-isoquinolinyl)-1,2,4-oxadiazol-5-yl]-2-[(1-methylethyl)oxy]benzonitrile], the EC50 in assay [1] and in assay [2] was ≤ 100 nM in each case.
Regarding `Cc1c(-c2noc(-c3cnc(OC(C)C)c(C#N)c3)n2)ccc2c1CCN(C(CO)CO)C2` [Example 134, 5-(3-{2-[2-hydroxy-1-(hydroxymethyl)ethyl]-5-methyl-1,2,3,4-tetrahydro-6-isoquinolinyl}-1,2,4-oxadiazol-5-yl)-2-[(1-methylethyl)oxy]-3-pyridinecarbonitrile hydrochloride], the values for the EC50 in assay [1] and in assay [2] were ≤ 100 nM and ≤ 10 nM, respectively.
